The record followed here is patent US20050203063A1, “Proteasome pathway inhibitors and related methods” (priority 2003, published 2005).

Experiment [1] has as its target T1, 26S proteasomes.
T1 construct: IC50, deubiquitination of UbSic1; other: titration, epoxomicin-treated proteasomes; other: 5 μM C92
Kind of experiment: Deubiquitination of UbSic1 by epoxomicin-treated purified 26S proteasomes. Type of experiment: biochemical, S. cerevisiae. The note with it: titration, epoxomicin-treated proteasomes. How it is done: (§1) FIG. 2. […] (A) Degradation of UbSic1. Purified 26S proteasomes were preincubated in the presence or absence of test compounds. UbSic1 was then added, and degradation assayed as described (6). Py mock refers to the pyridine solvent in which C23 was dissolved which was marginally inhibitory, unlike the 50% DMSO vehicle used for other test compounds. (B) Deubiquitination of UbSic1. […] UbSic1 was then added, and deubiquitination was assayed as described (6). (C) Titration curve with varying concentrations of C92 to determine half-maximal inhibition of deubiquitination. (D) C92 inhibits binding of UbSic1 to 26S proteasomes. Purified 26S proteasomes immobilized on anti-Flag beads were incubated with UbSic1 in the presence or absence of C92 as described (6). Following binding, beads were washed and analyzed by immunoblotting with anti-Sic1 polyclonal serum. (E) Binding of UbSic1 to the polyUb binding proteins Rpn10 and Rad23 is inhibited by C92. Recombinant Gst-Rpn10 and Gst-Rad23 (1 μg each) were immobilized on glutathione sepharose beads and then incubated with UbSic1 in the presence or absence of C92. Following binding, beads were washed and analyzed by immunoblotting. (F) C92 interacts with multiUb chains. Equivalent amounts (5 μg) of purified Gst, Gst-fusion protein or multiUb chains were incubated with C92 or C1 before being loaded on a 5% native polyacryamide gel. Electrophoresis was performed as described (33). (G) C92 and C59 interact specifically with K48-linked Ub on native gels. Ub (16 μM), K48-linked diUb (8 μM), or tetraUb chains (8 μM) were preincubated with a two fold-molar excess (monoUb and diUb), or equivalent amounts (tetraUb) of test compounds before being resolved on native gels as in (G). Tetra K29Ub, K48Ub, and K63Ub refer to tetraubiquitin chains wherein the ubiquitins are linked via K29, K48, or K63.
FIG. 5. […] Assays were performed and evaluated as summarized in the legend to FIG. 2B. The metal chelating reagent phenanthroline is designated as “P”, and “Py” refers to the pyridine solvent that is used as the solvent for C23. (B) Titration curve for C59. (C) Inhibition of binding of ubiquitin conjugates to Gst-Rpn10 by C92 and C59, but not other compounds. The experiment was performed as described for FIG. 2E.
(§2) 26S proteasomes were purified from S. cerevisiae cells expressing a Flag-tagged proteasomal subunit (PRE1) essentially as described (28).
Reactions were processed as above.

Experiment [2] deals with T2, 26S proteasomes (Saccharomyces cerevisiae, UniProt P38886+P43588).
T2 construct: 26S proteasomes were purified from S. cerevisiae cells expressing a Flag-tagged proteasomal subunit (PRE1); made in house; host or cells: S. cerevisiae cells expressing Flag-tagged PRE1
Briefly: 26S proteasome integrity on native gel (Coomassie Blue). Type of experiment: biochemical. The note with it: concentrations that inhibit ubiquitin-dependent proteolysis. How it is done:
FIG. 6. […] (A) Purified 26S proteasomes were preincubated with test compounds before being resolved on a native gel. Following electrophoresis, the gel was stained with Coomassie Blue. […] Same as (A), except that following electrophoresis, the gel was incubated with fluorescent substrate to determine peptidase activity, which was visualized using a UV transilluminator (9). […] (C) Untreated 26S proteasomes were resolved on a native gel. Following electrophoresis, the gel was incubated with the peptidase substrate in the presence of ubistatin.
as §2

The target of experiment [3] is T3, K63-linked ubiquitin chains (Homo sapiens, UniProt P0CG47).
T3 construct: tetraubiquitin chains wherein the ubiquitins are linked via K29, K48, or K63
Briefly: Native gel mobility shift of ubiquitin chains. Type of experiment: binding. The conditions noted are these: tetraUb, equivalent amount of compound. The protocol: as §1
(§3) Selective recognition of the multiubiquitin chain by the 26S proteasome constitutes the first step in UbSic1 degradation (9). Applicants therefore assayed the binding of UbSic1 to 26S proteasomes pre-treated with C92. […] Previous work by applicants has shown that multiubiquitin chain receptors Rad23 and Rpn10 serve a redundant role in sustaining UbSic1 degradation in vitro and in vivo (14). In the absence of the ubiquitin-binding activity of Rpn10, UbSic1 is not recruited, deubiquitinated, or degraded by purified 26S proteasomes. Thus, to further establish the mechanism by which C92 inhibited binding of UbSic1 conjugates to the proteasome, applicants tested whether C92 could interfere with binding of UbSic1 to recombinant Rpn10 and Rad23. […] To distinguish whether C92 inhibited proteolysis by binding to proteasome receptor proteins or to the Ub chain on Sic 1, applicants exploited the negative charge of C92 to determine whether compound binding induced a mobility shift of the target proteins on native gels. C92 was pre-incubated with recombinant Rpn10, Rad23, or a mixture of Ub chains containing 2-7 Ub molecules. […] Remarkably, the binding of C92 and C59 to ubiquitin chains was exquisitely linkage specific. Ubiquitin molecules can be linked to each other in vivo through different internal lysines, including K29, K48, and K63(19). The K48-linked chain is the principal targeting signal in proteolysis whereas K63-linked chains are implicated in enzyme regulation; no physiological function for K29-linked chains has yet been discovered (20).

Experiment [4] concerns the target T4, K48-linked ubiquitin chains (Homo sapiens, UniProt P0CG47).
T4 construct: a mixture of Ub chains containing 2-7 Ub molecules
Kind of experiment: Native gel mobility shift of ubiquitin chains. Type of experiment: binding. The conditions noted are these: for native gel mobility of K48-linked ubiquitin chains: diUb with two fold-molar excess, tetraUb with equivalent amount of compound. The protocol:
as §1, §3

Experiment [5] has as its target T5, K29-linked ubiquitin chains (Homo sapiens, UniProt P0CG47).
T5 construct: tetraubiquitin chains wherein the ubiquitins are linked via K29, K48, or K63
Kind of experiment: Native gel mobility shift of ubiquitin chains. The note with it: tetraUb, equivalent amount of compound. The class given is binding. The protocol: as §1, §3

Experiment [6] has as its target T6, Gst-Rpn10 (Saccharomyces cerevisiae, UniProt P38886).
T6 construct: made in house
T6 sequence (P38886 1-268): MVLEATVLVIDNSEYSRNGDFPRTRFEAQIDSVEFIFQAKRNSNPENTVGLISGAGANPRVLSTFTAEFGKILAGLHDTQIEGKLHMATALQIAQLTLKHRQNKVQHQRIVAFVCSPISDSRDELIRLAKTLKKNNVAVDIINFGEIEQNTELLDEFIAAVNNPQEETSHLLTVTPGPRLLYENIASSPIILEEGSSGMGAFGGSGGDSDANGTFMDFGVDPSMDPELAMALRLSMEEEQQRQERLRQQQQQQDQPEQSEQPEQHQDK
Briefly: Binding of UbSic1 to Gst-Rpn10 on glutathione sepharose beads. The protocol: as §1, with “(F) C92 interacts with multiUb chains. Equivalent amounts (5 μg) of purified Gst, Gst-fusion protein or multiUb chains were incubated with C92 or C1 before being loaded on a 5% native polyacryamide gel. Electrophoresis was performed as described (33). (G) C92 and C59 interact specifically with K48-linked Ub on native gels. Ub (16 μM), K48-linked diUb (8 μM), or tetraUb chains (8 μM) were preincubated with a two fold-molar excess (monoUb and diUb), or equivalent amounts (tetraUb) of test compounds before being resolved on native gels as in (G). Tetra K29Ub, K48Ub, and K63Ub refer to tetraubiquitin chains wherein the ubiquitins are linked via K29, K48, or K63.” left out
FIG. 5. […] Assays were performed and evaluated as summarized in the legend to FIG. 2B. […]
Recombinant Gst-Rpn10 and Gst-Rad23 were immobilized on glutathione sepharose beads. […] Aliquots were analyzed by immunoblotting.

pIC50: −log10 of the molar value.

T2 sequence (P43588 whole entry, one chain of several): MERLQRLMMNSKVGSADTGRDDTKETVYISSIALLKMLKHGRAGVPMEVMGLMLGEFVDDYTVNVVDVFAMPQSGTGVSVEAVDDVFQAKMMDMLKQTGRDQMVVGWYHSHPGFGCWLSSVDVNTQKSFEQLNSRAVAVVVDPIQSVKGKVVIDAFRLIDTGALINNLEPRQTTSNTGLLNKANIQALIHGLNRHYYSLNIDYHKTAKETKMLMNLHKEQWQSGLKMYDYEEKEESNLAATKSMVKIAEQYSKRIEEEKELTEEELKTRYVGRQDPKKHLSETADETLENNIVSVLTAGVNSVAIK

In general, pIC50 refers to −log10 of the IC50, conventionally taken in molar units. Low readings indicate a high IC50, high ones a low IC50. As to `O=S(=O)(O)c1ccc2cc3c(cc2c1)NN(c1ccc(/C=C/c2ccc(N4Nc5cc6ccc(S(=O)(=O)O)cc6cc5N4)cc2S(=O)(=O)O)c(S(=O)(=O)O)c1)N3` [Compound 59], the pIC50 in experiment [1] was 6.00. The “effect on 26S proteasome integrity / assembly” value in experiment [2] is “without affecting”. The “native gel mobility of K63-linked chains” value in experiment [3] is “little or no effect”. Besides, the “native gel mobility of K48-linked ubiquitin chains” value in experiment [4] is reported as “efficiently shifted”. Further, in experiment [5], the “native gel mobility of K29-linked chains” value is listed as “little or no effect”. In addition, the “inhibition of binding of UbSic1 to Rpn10” value in experiment [6] is on record as “abrogated binding”.
`O=C(Nc1ccc(/C=C/c2ccc(NC(=O)c3cc(S(=O)(=O)O)c4cccnc4c3O)cc2S(=O)(=O)O)c(S(=O)(=O)O)c1)c1cc(S(=O)(=O)O)c2cccnc2c1O` [Compound 92] gave a pIC50 in experiment [1] of around 6.40. For the same compound, in experiment [2], the “effect on 26S proteasome integrity / assembly” value is reported as “without affecting”. In experiment [3], the “native gel mobility of K63-linked chains” value is “little or no effect”. Further, the “native gel mobility of K48-linked ubiquitin chains” value in experiment [4] is given as “efficiently shifted”. Moreover, the “native gel mobility of multiUb chains” value in experiment [4] (mixture of Ub chains containing 2-7 Ub molecules) is given as “bound Ub chains”. Besides, the “native gel mobility of K29-linked chains” value in experiment [5] was “little or no effect”. In addition, in experiment [6], the “inhibition of binding of UbSic1 to Rpn10” value was “abolished binding”.
